Structures can show the parent of a compound that is named as a salt.

T1 sequence (A0A287BIN3 25-1109): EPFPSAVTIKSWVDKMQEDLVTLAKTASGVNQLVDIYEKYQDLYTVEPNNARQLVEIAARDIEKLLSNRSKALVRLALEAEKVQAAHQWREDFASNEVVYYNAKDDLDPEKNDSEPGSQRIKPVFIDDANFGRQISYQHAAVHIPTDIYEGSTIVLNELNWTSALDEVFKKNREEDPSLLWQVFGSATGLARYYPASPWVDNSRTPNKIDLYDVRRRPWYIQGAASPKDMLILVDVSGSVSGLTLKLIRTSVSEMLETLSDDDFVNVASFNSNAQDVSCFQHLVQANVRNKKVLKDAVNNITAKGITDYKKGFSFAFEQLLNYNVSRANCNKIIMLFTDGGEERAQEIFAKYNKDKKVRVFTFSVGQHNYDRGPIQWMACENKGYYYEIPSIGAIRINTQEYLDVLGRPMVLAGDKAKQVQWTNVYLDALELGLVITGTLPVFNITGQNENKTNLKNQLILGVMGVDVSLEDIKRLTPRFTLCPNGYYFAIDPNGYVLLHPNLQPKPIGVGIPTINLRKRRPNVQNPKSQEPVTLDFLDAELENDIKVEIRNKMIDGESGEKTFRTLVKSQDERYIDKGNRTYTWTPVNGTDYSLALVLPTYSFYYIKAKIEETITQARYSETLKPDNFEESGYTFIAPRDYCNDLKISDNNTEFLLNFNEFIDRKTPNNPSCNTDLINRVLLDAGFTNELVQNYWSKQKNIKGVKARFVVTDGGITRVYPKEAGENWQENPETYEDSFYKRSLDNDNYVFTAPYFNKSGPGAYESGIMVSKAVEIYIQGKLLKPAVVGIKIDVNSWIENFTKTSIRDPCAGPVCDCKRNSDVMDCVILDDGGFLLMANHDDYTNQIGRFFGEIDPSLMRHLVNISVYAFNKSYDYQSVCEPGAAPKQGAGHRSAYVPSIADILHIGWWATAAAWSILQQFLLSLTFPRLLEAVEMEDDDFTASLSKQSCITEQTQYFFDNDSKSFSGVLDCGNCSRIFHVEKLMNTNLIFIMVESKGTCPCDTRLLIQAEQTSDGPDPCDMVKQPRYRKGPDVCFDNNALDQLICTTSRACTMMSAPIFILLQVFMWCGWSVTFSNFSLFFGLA

One data set addresses T1, α2δ-subunit of a calcium channel (Sus scrofa, UniProt A0A287BIN3).
T1 construct: the α2δ-subunit derived from porcine brain tissue was used; from tissue; host or cells: porcine brain tissue
Put plainly: radioligand binding assay using [3H]-gabapentin. The settings on record: α2δ-subunit derived from porcine brain tissue. An excerpt: The ability of compounds of the present invention to bind to the α2δ-subunit of a calcium channel can be determined using the following binding assay.
The radioligand binding assay using [^3H]-gabapentin and the α2δ-subunit derived from porcine brain tissue was used (See, Gee, Nicolas S et at “The novel anticonvulsant drug, gabapentin (Neurontin), binds to the α2δ subunit of a calcium channel”. J. Biol. Chem. (1996), 271(10), 5768-76). Compounds of the invention bind with nanomolar to micromolar affinity for the α2δ protein.
Take `CCCC(C)(C)CC(CN)C(=O)O.Cl` (stereo not drawn) [2-Aminomethyl-4,4-dimethyl-heptanoic acid hydrochloride]: the “affinity to the α2δ protein” value is given as 83 nM.
Same read-out and setting: as for `CCC[C@@H](C)C[C@H](CN)C(=O)O` [(2R,4R)-2-Aminomethyl-4-methyl-heptanoic acid], the figure is 29 nM; as for `CCC[C@H](C)C[C@H](N)CC(=O)O` [(3S,5S)-3-amino-5-methyl-octanoic acid], 1000 nM.
With `CC(C)CCCC(C)C[C@@H](N)CC(=O)O` (stereo partly drawn) [R-3-amino-5,9-dimethyl-decanoic acid], the “affinity to the α2δ protein” value is on record as 527 nM.

Tested on in the next data set: not given
Test: not given
Conditions: not given
`CCC[C@@H](C)C[C@H](N)CC(=O)O.Cl` had a melting point of 142.5 to 142.7 °C.
The same measure, in the same setting: as for `CCCC[C@@H](C)C[C@H](N)CC(=O)O` (as salt: hydrochloride), the figure is 142.5 to 143.3 °C; as for `CCCC(C)(C)C[C@H](N)CC(=O)O` (as salt: hydrochloride), 194.2 to 195.2 °C; as for `CCC[C@@H](C)C[C@H](CN)C(=O)O` (as salt: hydrochloride) [(2R,4R)-2-Aminomethyl-4-methyl-heptanoic acid], 226.3 to 228 °C.
On the same count and under the same terms, as for `CCCC(C)(C)CC(CN)C(=O)O.Cl` (stereo not drawn) [2-Aminomethyl-4,4-dimethyl-heptanoic acid hydrochloride], the figure is 229.5 to 231 °C.

Broadly, the melting point is the temperature of the solid-liquid transition.

The values are drawn from US7517909B2, “Amino acids with affinity for the α2δ-protein” (Pfizer Inc, priority 2002, dated 2009).
